# Assay results reported in patent US20030068615A1, “Polypeptides that bind HIV gp120 and related nucleic acids, antibodies, compositions, and methods of use” (priority 1999, published 2003).
# Where “and” joins values, the source holds several entries; their conditions need not be identical. Identical values can stand only once. Like-named read-outs stand apart in the source and are kept apart here.
# Target: HIV-1LAI envelope gp120 (Human immunodeficiency virus type 1 group M subtype B, UniProt P03377)
# Assay type: binding
# Conditions: for number of radioactive decays (counts) counted: human CD4 21-mer scan, empty control 2075; for Relative % of Control: mean of two syntheses and binding experiments ± average deviation, wild-type = 100%; for Counts per 20′ Average-background: CCR5 18-mer scan, radiolabeled HIV-1LAI gp120; for Binding Results For Window Length (counts bound-background), 9 / Binding Results For Window Length (counts bound-background), 12 / Binding Results For Window Length (counts bound-background), 15 / Binding Results For Window Length (counts bound-background), 18: STRL33 amino terminus; for Binding Results For Window Length (counts bound-background), 9: 9-mer starting at the first residue of the printed sequence; for Binding Results For Window Length (counts bound-background), 12: 12-mer starting at the first residue of the printed sequence; for Binding Results For Window Length (counts bound-background), 15: 15-mer starting at the first residue of the printed sequence; for Binding Results For Window Length (counts bound-background), 18: 18-mer starting at the first residue of the printed sequence
# [1] = STRL33 18-mer scan, background subtracted, first of two count columns
# [2] = STRL33 18-mer scan, background subtracted, second of two count columns
# [3] = Panel A, 21-mers of CD4, empty control 515 and 617
# [4] = Panel E, 9-mers and 12-mers of CD4, empty control 571
# [5] = Panel B, 15-mers and 18-mers of CD4, empty control 575
# [6] = Panel C, 15-mers and 18-mers of CD4, empty control 556
# [7] = Panel D, 9-mers and 12-mers of CD4, empty control […]
# [8] = CXCR4 18-mer scan, background subtracted, empty control 0
# [9] = CXCR4 18-mer scan, empty control 412
# [10] = Panel F, sequential alanine replacements of CD4 polypeptides, duplicate series, empty control 569
# [11] = Panel G, alanine replacements and serial truncations (Z) of CD4 polypeptides, empty control 580
sequence,measurement,setting,value
MLILTCITVDRFIVVVKA,radioactive counts recorded in twenty minutes,[1],298.5 counts
same,radioactive counts recorded in twenty minutes,[2],228.5 counts
AFTVEKLTGSGELWWQAERAS [human CD4 226-246],COUNTS of radiolabeled gp120 retained,[3],1739 counts
same,number of radioactive decays (counts) counted,,3992 counts
YKKEGEQVE,COUNTS of radiolabeled gp120 retained,[4],518 counts
FPLIIKNLKIEDSDTYIC,COUNTS of radiolabeled gp120 retained,[5],509 counts
MEGISIYTSDNATEEMGS,Relative % of Control,CXCR4 (1-18) alanine variants,28 ± 2%
LTGSGELWW,COUNTS of radiolabeled gp120 retained,[4],550 counts
EVEDQKEEVQLLVFGLTA,COUNTS of radiolabeled gp120 retained,[5],3647 counts
FLPLLTMIVCYSVIIKTL,radioactive counts recorded in twenty minutes,[1],1270.5 counts
same,radioactive counts recorded in twenty minutes,[2],1195.5 counts
VLAFQKASSIVYKKE,COUNTS of radiolabeled gp120 retained,[6],634 counts
EVEDQKEEVQLLVFG,COUNTS of radiolabeled gp120 retained,[5],2805 counts
KIEDSDTYI,COUNTS of radiolabeled gp120 retained,[7],603 counts
IGISIDSFILLEIIKQGC [CXCR4 segment 257-274],radioactive counts recorded in twenty minutes,[8],734 counts
same,radioactive counts recorded in twenty minutes,[9],1146 counts
KVTSLLIWVISLLVSLPQ,radioactive counts recorded in twenty minutes,[1],−39.5 counts
same,radioactive counts recorded in twenty minutes,[2],−118.5 counts
EDSDTYICEVEDQKEEVQ,COUNTS of radiolabeled gp120 retained,[5],788 counts
AFTVEKLTGSGELWWQAE,COUNTS of radiolabeled gp120 retained,[6],788 counts
QKASSIVYKKEGEQV,COUNTS of radiolabeled gp120 retained,[6],519 counts
EAISTVVLATQMTLGFFL [STRL33 segment 185-202],radioactive counts recorded in twenty minutes,[1],3973.5 counts
same,radioactive counts recorded in twenty minutes,[2],3745.5 counts
EEVQLLAFGLTANSD,COUNTS of radiolabeled gp120 retained,[10],13317 counts and 16286 counts
ICEVEDQKEEVQ,COUNTS of radiolabeled gp120 retained,[7],585 counts
LKIEDSDTY,COUNTS of radiolabeled gp120 retained,[7],492 counts
LWDQGNFPLIIKNLK,COUNTS of radiolabeled gp120 retained,[5],502 counts
THLLQGQALTLTLES,COUNTS of radiolabeled gp120 retained,[10],8659 counts and 5151 counts
VEDQKEEVQLLV,COUNTS of radiolabeled gp120 retained,[7],657 counts
VSEADDRYICDRFYPNDL [CXCR4 segment 177-194],radioactive counts recorded in twenty minutes,[8],157 counts
same,radioactive counts recorded in twenty minutes,[9],569 counts
SDTYICEVE,COUNTS of radiolabeled gp120 retained,[7],819 counts
SVADLLFVITLPFWAVDA [CXCR4 segment 81-98],radioactive counts recorded in twenty minutes,[8],253 counts
same,radioactive counts recorded in twenty minutes,[9],665 counts
RCRHRRRQAERMSQIKRLLSE [human CD4 421-441],number of radioactive decays (counts) counted,,2075 counts
CEVEDQKEEVQLLVFGLT,COUNTS of radiolabeled gp120 retained,[5],3797 counts
VYKKEGEQV,COUNTS of radiolabeled gp120 retained,[4],490 counts
FGLTANSDTHLL,COUNTS of radiolabeled gp120 retained,[7],571 counts
VVFQFQHIMVGLILPGIV,radioactive counts recorded in twenty minutes,[8],589 counts
same,radioactive counts recorded in twenty minutes,[9],1001 counts
CSSSNRLDQAMQVTETLG [CCR5 segment 269-],Counts per 20′ Average-background,background subtracted,90 counts per 20′
SSQEEEQAFLQFSKV,"Binding Results For Window Length (counts bound-background), 9",background subtracted,287 counts
same,"Binding Results For Window Length (counts bound-background), 12",background subtracted,4455 counts
same,"Binding Results For Window Length (counts bound-background), 15",background subtracted,4732 counts
MLVILILINCKRLKSMTD [CCR5 segment 49-66],Counts per 20′ Average-background,background subtracted,84 counts per 20′
WTCTVLQNQKKVEFK,COUNTS of radiolabeled gp120 retained,[6],566 counts
VFGLTANSDTHLLQG,COUNTS of radiolabeled gp120 retained,[5],532 counts
EFKIDIVVL,COUNTS of radiolabeled gp120 retained,[4],665 counts
SLKIIFLVMAVFLLTQMP [STRL33 segment 229-246],radioactive counts recorded in twenty minutes,[1],612.5 counts
same,radioactive counts recorded in twenty minutes,[2],853.5 counts
SVYTRSTGEQEISVGL [CCR5 segment 337-],Counts per 20′ Average-background,background subtracted,47 counts per 20′
YAMTSFHYTIMVTEAIAY [STRL33 segment 261-278],radioactive counts recorded in twenty minutes,[1],2688.5 counts
same,radioactive counts recorded in twenty minutes,[2],2359.5 counts
FSFPLAFTVEKLTGSGELWWQ,COUNTS of radiolabeled gp120 retained,[3],4163 counts
same,number of radioactive decays (counts) counted,,9673 counts
EFSFPLAFTVEKLTGSGE,COUNTS of radiolabeled gp120 retained,[6],668 counts
FACWLPYYIGISIDSFIL [CXCR4 segment 249-266],radioactive counts recorded in twenty minutes,[8],202 counts
same,radioactive counts recorded in twenty minutes,[9],614 counts
AYLRACLNPVLYAFVSLK [STRL33 segment 277-294],radioactive counts recorded in twenty minutes,[1],1802.5 counts
same,radioactive counts recorded in twenty minutes,[2],1849.5 counts
NSDTHLLQGQSLTLTLES,COUNTS of radiolabeled gp120 retained,[5],1726 counts
DLVFVCTLPFWAYAGIHE [STRL33 segment 77-94],radioactive counts recorded in twenty minutes,[1],1116.5 counts
same,radioactive counts recorded in twenty minutes,[2],1063.5 counts
MEGISIYTSDAYTEEMGS,Relative % of Control,CXCR4 (1-18) alanine variants,38 ± 0.4%
IVILSCYCIIISKLSHSK,radioactive counts recorded in twenty minutes,[8],277 counts
same,radioactive counts recorded in twenty minutes,[9],689 counts
IFLVMAVFLLTQMPFNLM [STRL33 segment 233-250],radioactive counts recorded in twenty minutes,[1],386.5 counts
same,radioactive counts recorded in twenty minutes,[2],772.5 counts
VEFKIDIVV,COUNTS of radiolabeled gp120 retained,[4],548 counts
YAAAQWDFGNTMCQLLTG [CCR5 segment 89-],Counts per 20′ Average-background,background subtracted,494 counts per 20′
FQKASSIVY,COUNTS of radiolabeled gp120 retained,[4],568 counts
FNDSSQEEEQAFLQFSKV,"Binding Results For Window Length (counts bound-background), 9",background subtracted,246 counts
same,"Binding Results For Window Length (counts bound-background), 12",background subtracted,470 counts
same,"Binding Results For Window Length (counts bound-background), 15",background subtracted,4089 counts
same,"Binding Results For Window Length (counts bound-background), 18",background subtracted,4678 counts
AKRFCKCCSIFQQEAPER [CCR5 segment 317-],Counts per 20′ Average-background,background subtracted,64 counts per 20′
AEHDYHEDYGFSSFNDSS,"Binding Results For Window Length (counts bound-background), 9",background subtracted,354 counts
same,"Binding Results For Window Length (counts bound-background), 12",background subtracted,697 counts
same,"Binding Results For Window Length (counts bound-background), 15",background subtracted,1095 counts
same,"Binding Results For Window Length (counts bound-background), 18",background subtracted,1014 counts
SEDNSKTFSASHNVEATS [STRL33 segment 321-338],radioactive counts recorded in twenty minutes,[1],524.5 counts
MDYQVSSPIYDINYYTSE,Counts per 20′ Average-background,background subtracted,735 counts per 20′
same,Relative % of Control,CCR5 (1-18) alanine variants,100%
KEEVQLLVF,COUNTS of radiolabeled gp120 retained,[7],1273 counts
IFTIMIVYFLFWAPYNIV [CCR5 segment 237-],Counts per 20′ Average-background,background subtracted,121 counts per 20′
LLQGQSLTL,COUNTS of radiolabeled gp120 retained,[7],568 counts
QKKVEFKIDIVVLAFQKA,COUNTS of radiolabeled gp120 retained,[6],1013 counts
DIVVLAFQKASSIVYKKE,COUNTS of radiolabeled gp120 retained,[6],660 counts
HQAFLQFSK,"Binding Results For Window Length (counts bound-background), 9",background subtracted,2761 counts
IIKNLKIEDSDTYIC,COUNTS of radiolabeled gp120 retained,[5],664 counts
EFKIDIVVLAFQKASSIVYKK,COUNTS of radiolabeled gp120 retained,[3],649 counts
SFPLAFTVEKLT,COUNTS of radiolabeled gp120 retained,[4],528 counts
DAVANWYFGNFLCKAVHV,radioactive counts recorded in twenty minutes,[8],112 counts
same,radioactive counts recorded in twenty minutes,[9],524 counts
FWKNFQTLKIVILGLVLP [CCR5 segment 189-],Counts per 20′ Average-background,background subtracted,40 counts per 20′
DIVVLAFQK,COUNTS of radiolabeled gp120 retained,[4],686 counts
IKNLKIEDSDTYICEVED,COUNTS of radiolabeled gp120 retained,[5],699 counts
QGQSLTLTL,COUNTS of radiolabeled gp120 retained,[7],594 counts
EKKTCQCPHRFQKTCSPI,number of radioactive decays (counts) counted,,2006 counts
FTVEKLTGSGELWWQ,COUNTS of radiolabeled gp120 retained,[6],625 counts
NSDTHLLQGQSLTLT,COUNTS of radiolabeled gp120 retained,[5],631 counts
THLLQGQSLTLTLAS,COUNTS of radiolabeled gp120 retained,[10],2596 counts and 2193 counts
VFGLTANSDTHLLQGQSL,COUNTS of radiolabeled gp120 retained,[5],531 counts
GLTANSDTHLLQ,COUNTS of radiolabeled gp120 retained,[7],574 counts
MAGISIYTSDNYTEEMGS [CXCR4 (1-18) variant E2A],Relative % of Control,CXCR4 (1-18) alanine variants,36 ± 0.3%
GEQVEFSFPLAFTVE,COUNTS of radiolabeled gp120 retained,[6],4656 counts
same,COUNTS of radiolabeled gp120 retained,[11],18856 counts and 18867 counts and 20691 counts and 17662 counts and 19190 counts and 18219 counts
EDQKEEVQLLVFGLT,COUNTS of radiolabeled gp120 retained,[5],3633 counts
LPYYIGISIDSFILLEII,radioactive counts recorded in twenty minutes,[8],439 counts
same,radioactive counts recorded in twenty minutes,[9],851 counts
TALLQGQSLTLTLES,COUNTS of radiolabeled gp120 retained,[10],6931 counts and 5012 counts
TEAIAYLRACLNPVLYAF [STRL33 segment 273-290],radioactive counts recorded in twenty minutes,[1],604.5 counts
same,radioactive counts recorded in twenty minutes,[2],480.5 counts
SFWDSSQEEEQAFLQFSK,"Binding Results For Window Length (counts bound-background), 9",background subtracted,304 counts
same,"Binding Results For Window Length (counts bound-background), 12",background subtracted,303 counts
same,"Binding Results For Window Length (counts bound-background), 15",background subtracted,969 counts
same,"Binding Results For Window Length (counts bound-background), 18",background subtracted,4537 counts
KNLKIEDSDTYICEV,COUNTS of radiolabeled gp120 retained,[5],562 counts
SSIVYKKEGEQVEFS,COUNTS of radiolabeled gp120 retained,[6],558 counts
IEDSDTYICEVEDQKEEV,COUNTS of radiolabeled gp120 retained,[5],1230 counts
AEGISIYTSDNYTEEMGS [CXCR4 (1-18) variant M1A],Relative % of Control,CXCR4 (1-18) alanine variants,118 ± 18%
LTANSDTHLLQG,COUNTS of radiolabeled gp120 retained,[7],534 counts
GEQVEFSFPLAFTVA,COUNTS of radiolabeled gp120 retained,[11],18371 counts and 18187 counts
LAFTVEKLTGSG,COUNTS of radiolabeled gp120 retained,[4],608 counts
KKVEFKIDIVVL,COUNTS of radiolabeled gp120 retained,[4],597 counts
